# US7939546B2, “Quinoline derivatives for modulating DNA methylation” (SuperGen, Inc., priority 2007, dated 2011)
# Structures can show the parent of a compound that is named as a salt. Where two headings read alike, the source gives them in different places.
# Legend:
# CMV-EE210 cell line = test: Toxicity (TD50, cell viability) reported with the GFP assay; settings: for TD50: Dose at which cells are >50% viable
# Procedure: (§1) The demethylating activity of non-bis-quaternary 4-anilinoquinolines were tested in a cell-based GFP (green fluorescent protein) assay. This assay has a GFP gene regulated by the CMV promoter and is sensitive to the methylation of CpG sites within the promoter. A decrease in methylation resulting from exposure to a methylation inhibitor leads to GFP expression and is readily scored. Specifically, the CMV-EE210 cell line containing the epigenetically silenced GFP transgene was used to assay for reactivation of GFP expression by flow cytometry. CMV-EE210 was made by transfecting NIH 3T3 cells with the pTR-UF/UF1/UF2 plasmid (Zolotuhin et al., 1996), which is comprised of pBS(+) (Stratagene, Inc.) containing a cytomegalovirus (CMV) promoter driving a humanized GFP gene adapted for expression in mammalian cells. After transfection, high-level GFP expressing cells were initially selected by FACS analysis and sorting using a MoFlo cytometer (Cytomation, Inc.). […] To screen for reactivation of CMV-EE210, decitabine (at […]) or a test compound (at a concentration of 30-50 μM) was added to complete medium (phenol red free DMEM (Gibco, Life Technologies) supplemented with 10% fetal bovine serum (Hyclone)). Cells were then seeded to 30% confluence (˜5000 cell/well) in 96 well plate containing the test compounds and grown for three days in at 37° C. in 5% CO2. The plates were examined under a fluorescent microscope using a 450-490 excitation filter (13 filter cube, Leica, Deerfield Ill.). Wells were scored g1 positive if 10% of viable cells express GFP, g2 positive if 30% of viable cells express GFP and g3 if greater than 75% of the viable cells express GFP. GFP IC 50 is the concentration of an inhibitor that (like an IC50) is the dose at which the GFP expression level goes from g3 to g1/2.
# DNMT1 = DNMT1 (Homo sapiens, UniProt P26358); test: Selective depletion of DNMT1 by Western blot in treated HCT116 cells; type: cell-based; set-up: Protein extracts (equivalent to 100 μg) were isolated from HCT116 cells; endogenous in cells; host or cells: HCT116; settings: for % DNMT1 protein level remaining at 5 µM: HCT-116, 5 μM; for % DNMT1 protein level remaining at 10 µM: HCT-116, 10 μM; for % DNMT1 protein level remaining at 100 µM: HCT-116, 100 μM
# From the text: Biol. 2005, 11, 4727-41.]. For DNMT1, commercially available antibodies from Santa Cruz or New England Biolabs were used.
# [1] = test system: CMV-EE210 cell line containing the epigenetically silenced GFP transgene; test: Cell-based GFP assay for demethylating activity (reactivation of silenced GFP transgene); settings: for IC50: read-out: GFP IC50; for GFP Expression Level: test compound 30-50 μM, decitabine at 11 M (so in the source), three days
# Procedure: as §1
# [2] = dose at which the GFP expression level goes from g3 to g1/2
# Chain of DNMT1 (P26358 whole entry): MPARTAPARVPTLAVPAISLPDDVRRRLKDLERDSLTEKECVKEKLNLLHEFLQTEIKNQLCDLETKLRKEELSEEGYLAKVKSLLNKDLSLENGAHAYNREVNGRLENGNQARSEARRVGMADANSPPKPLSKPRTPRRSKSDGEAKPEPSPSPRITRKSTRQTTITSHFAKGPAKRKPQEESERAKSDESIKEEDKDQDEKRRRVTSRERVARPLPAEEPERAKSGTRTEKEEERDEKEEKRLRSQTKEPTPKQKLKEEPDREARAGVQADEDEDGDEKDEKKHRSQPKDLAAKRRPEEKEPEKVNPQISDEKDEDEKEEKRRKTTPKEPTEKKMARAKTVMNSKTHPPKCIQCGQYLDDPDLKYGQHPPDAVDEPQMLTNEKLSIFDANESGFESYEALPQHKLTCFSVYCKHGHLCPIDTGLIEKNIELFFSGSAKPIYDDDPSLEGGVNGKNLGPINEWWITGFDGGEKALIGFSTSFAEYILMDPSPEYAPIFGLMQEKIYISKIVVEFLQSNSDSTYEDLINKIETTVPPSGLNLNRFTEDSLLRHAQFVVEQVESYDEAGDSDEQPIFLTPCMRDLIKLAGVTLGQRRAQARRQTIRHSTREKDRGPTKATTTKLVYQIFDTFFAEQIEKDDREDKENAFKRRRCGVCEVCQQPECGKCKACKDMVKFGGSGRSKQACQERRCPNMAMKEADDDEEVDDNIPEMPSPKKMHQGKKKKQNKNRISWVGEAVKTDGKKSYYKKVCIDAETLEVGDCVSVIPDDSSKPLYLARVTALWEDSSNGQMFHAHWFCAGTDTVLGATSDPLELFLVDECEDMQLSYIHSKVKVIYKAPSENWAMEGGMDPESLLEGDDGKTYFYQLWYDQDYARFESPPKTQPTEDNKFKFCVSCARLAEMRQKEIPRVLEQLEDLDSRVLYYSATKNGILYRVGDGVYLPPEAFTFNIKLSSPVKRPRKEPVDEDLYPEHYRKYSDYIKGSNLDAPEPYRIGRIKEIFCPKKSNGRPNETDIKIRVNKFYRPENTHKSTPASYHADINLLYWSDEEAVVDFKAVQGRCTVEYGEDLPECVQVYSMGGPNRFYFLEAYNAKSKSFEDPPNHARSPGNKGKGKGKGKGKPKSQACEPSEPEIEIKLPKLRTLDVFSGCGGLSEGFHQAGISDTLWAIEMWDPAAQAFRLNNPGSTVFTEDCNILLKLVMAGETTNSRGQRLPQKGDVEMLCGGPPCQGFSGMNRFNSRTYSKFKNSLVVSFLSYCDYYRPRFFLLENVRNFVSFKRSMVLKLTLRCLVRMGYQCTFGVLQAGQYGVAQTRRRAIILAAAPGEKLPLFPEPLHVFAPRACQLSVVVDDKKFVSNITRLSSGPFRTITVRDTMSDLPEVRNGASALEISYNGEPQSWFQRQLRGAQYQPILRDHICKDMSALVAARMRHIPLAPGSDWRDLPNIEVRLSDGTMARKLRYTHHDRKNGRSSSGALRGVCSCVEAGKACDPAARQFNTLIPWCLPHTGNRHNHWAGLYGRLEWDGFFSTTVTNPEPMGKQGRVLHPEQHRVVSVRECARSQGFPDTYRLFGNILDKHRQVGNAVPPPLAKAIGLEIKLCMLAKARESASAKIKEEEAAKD
Molecule,TD50 (CMV-EE210 cell line) [µM],% DNMT1 Level (DNMT1; 5 μM) [%],% DNMT1 Level (DNMT1; 10 μM) [%],IC50 [1] [µM],GFP Expression Level [1],% DNMT1 protein level remaining at 5 µM (DNMT1) [%],% DNMT1 protein level remaining at 10 µM (DNMT1) [%],% DNMT1 protein level remaining at 100 µM (DNMT1) [%],melting point [°C],% DNMT1 Level (DNMT1; 100 μM) [%],"IC50 [1, 2] [µM]",toxicity relative to decitabine (CMV-EE210 cell line)
"Cc1cc(Nc2ccc(NC(=O)c3ccc(Nc4ccnc5ccccc45)cc3)cc2)nc(N)n1 [Cpd. E, N-(4-(2-amino-6-methylpyrimidin-4-ylamino)phenyl)-4-(quinolin-4-ylamino)benzamide hydrochloride]",25,11,0.5,12,g1 (g1 positive if 10% of viable cells express GFP),,,,,,,
"C[n+]1ccc(Nc2cccc(NC(=O)c3ccc(Nc4ccnc5cc(N)ccc45)cc3)c2)cc1 [Cpd. V, 4-[3-({4-[(7-ammonio-4-quinolinyl)amino]benzoyl}amino)anilino]-1-methylpyridinium dichloride]",12.5,,,,,112,110,124,281 to 285,,,
"C[n+]1ccc(Nc2ccc(C(=O)Nc3ccc(Nc4ccnc5ccccc45)cc3)cc2)cc1.Cl.[Cl-] [Cpd. D, 4-[4-({4-[(1-methyl-4-pyridiniumyl)amino]benzoyl}amino)anilino]quinolinium dichloride]",12.5,131,103,,g1 (g1 positive if 10% of viable cells express GFP),,,,,74,,
"C[n+]1ccc(Nc2ccc(C(=O)Nc3ccc(Nc4ccnc5ccc(N)cc45)cc3)cc2)cc1 [Cpd. N, 4-[4-({4-[(6-amino-4-quinolinyl)amino]anilino}carbonyl)anilino]-1-methylpyridinium chloride]",50,,,100,g2 (g2 positive if 30% of viable cells express GFP),160,152,130,,,,
"Nc1ncn([C@H]2C[C@H](O)[C@@H](CO)O2)c(=O)n1 [Decitabine, 5-aza-2′-deoxycytidine, reference compound]",12.5,,,,,0 to 5,,,,,0.39,
"C[n+]1ccc(Nc2cccc(NC(=O)c3ccc(Nc4ccnc5ccccc45)cc3)c2)cc1 [Cpd. A, 1-methyl-4-(3-{[4-(4-quinolinylamino)benzoyl]amino}anilino)pyridinium chloride]",12.5,,,,,99,117,119,,,,
"CN(C)c1ccc2c(Nc3ccc(C(=O)Nc4cccc(Nc5cc[n+](C)cc5)c4)cc3)ccnc2c1.Cl.[Cl-] [Cpd. Z, 7-(dimethylamino)-4-[4-({3-[(1-methyl-4-pyridiniumyl)amino]anilino}carbonyl)anilino]quinolinium dichloride]",25,83,115,,,,,,,87,1,less than one-half as toxic as decitabine
"C[n+]1ccc(Nc2ccc(C(=O)Nc3ccc(Nc4ccnc5cc(N)ccc45)cc3)cc2)cc1 [Cpd. Y, 4-[4-({4-[(7-amino-4-quinolinyl)amino]anilino}carbonyl)anilino]-1-methylpyridinium chloride]",25,,,100,g1 (g1 positive if 10% of viable cells express GFP),93,63,77,,,,
"Cc1cc(Nc2ccc(NC(=O)c3ccc(Nc4ccnc5cc(N(C)C)ccc45)cc3)cc2)nc(N)n1 [Cpd. BB, N-[4-(2-amino-6-methylpyrimidin-4-ylamino)phenyl]-4-(7-(dimethylamino)quinolin-4-ylamino)benzamide hydrochloride]",25,,,100,,106,76,32,,,,less than one-half as toxic as decitabine
"C[n+]1ccc(Nc2cccc(C(=O)Nc3ccc(Nc4ccnc5ccc([N+](=O)[O-])cc45)cc3)c2)cc1 [Cpd. J, 4-[4-({3-[(1-methyl-4-pyridiniumyl)amino]benzoyl}amino)anilino]-6-nitroquinolinium dichloride]",12.5,,,,,101,89,59,> 300,,,
"C[n+]1ccc(Nc2cccc(C(=O)Nc3ccc(Nc4ccnc5ccc(N)cc45)cc3)c2)cc1 [Cpd. M, 6-amino-4-[4-({3-[(1-methyl-4-pyridiniumyl)amino]benzoyl}amino)anilino]quinolinium dichloride]",25,,,,,30,40,43,> 310,,,
"C[n+]1ccc(Nc2cccc(NC(=O)c3ccc(Nc4ccnc5cc([N+](=O)[O-])ccc45)cc3)c2)cc1 [Cpd. R, 1-methyl-4-[3-({4-[(7-nitro-4-quinolinyl)amino]benzoyl}amino)anilino]pyridinium chloride]",25,,,,,160,170,165,,,,
"C[n+]1ccc(Nc2cccc(C(=O)Nc3ccc(Nc4ccnc5ccccc45)cc3)c2)cc1.Cl.[Cl-] [Cpd. C, 4-[4-({3-[(1-methyl-4-pyridiniumyl)amino]benzoyl}amino)anilino]quinolinium dichloride]",25,31,33,,g1 (g1 positive if 10% of viable cells express GFP),,,,,34,50,
"CN(C)c1ccc2c(Nc3ccc(NC(=O)c4ccc(Nc5cc[n+](C)cc5)cc4)cc3)ccnc2c1.Cl.[Cl-] [Cpd. DD, 7-(dimethylamino)-4-[4-({4-[(1-methyl-4-pyridiniumyl)amino]benzoyl}amino)aniline]quinolinium dichloride]",25,90,74,,,,,,,52,,
"C[n+]1ccc(Nc2ccc(NC(=O)c3ccc(Nc4ccnc5ccccc45)cc3)cc2)cc1 [Cpd. B, 1-methyl-4-(4-(4-(quinolin-4-ylamino)benzamido)phenylamino)pyridinium chloride hydrochloride]",25,,,,,102,98,81,,,,
"C[n+]1ccc(Nc2cccc(NC(=O)c3ccc(Nc4ccnc5ccc(N)cc45)cc3)c2)cc1 [Cpd. K, 4-[3-({4-[(6-ammonio-4-quinolinyl)amino]benzoyl}amino)anilino]-1-methylpyridinium dichloride]",12.5,,,,,98,92,37,270 to 274,,,
CN(C)c1ccc2c(Nc3ccc(C(=O)Nc4ccc(Nc5cc[n+](C)cc5)cc4)cc3)ccnc2c1.Cl.[Cl-] [Cpd. AA],25,136,101,,g2 (g2 positive if 30% of viable cells express GFP),,,,,32,,
"C[n+]1ccc(Nc2cccc(C(=O)Nc3ccc(Nc4ccnc5cc(N)ccc45)cc3)c2)cc1.Cl.[Cl-] [Cpd. X, 7-amino-4-[4-({3-[(1-methyl-4-pyridiniumyl)amino]benzoyl}amino)anilino]quinolinium dichloride]",25,49,98,,g2 (g2 positive if 30% of viable cells express GFP),,,,,73,50,
1-methyl-4-[4-(4-{7-nitroquinolin-4-ylamino}benzamido)-phenylamino]pyridinium dichloride [Cpd. S],25,87,101,,,,,,,69,,
